Assays:
[1] = target: T1, Recombinant human peroxiredoxin 1 (Homo sapiens, UniProt Q06830); experiment: LC-MS of trypsin or chymotrypsin digested Prx 1 after incubation with Tavocept; type: binding
T1 construct: purchased SigmaAldrich
T1 sequence (Q06830 1-199): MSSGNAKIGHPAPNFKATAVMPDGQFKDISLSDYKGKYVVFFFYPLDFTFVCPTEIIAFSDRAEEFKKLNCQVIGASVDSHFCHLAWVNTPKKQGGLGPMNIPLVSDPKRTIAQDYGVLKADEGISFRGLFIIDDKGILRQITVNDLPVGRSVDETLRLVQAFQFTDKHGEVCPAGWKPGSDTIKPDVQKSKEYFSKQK
Procedure: Recombinant human peroxiredoxin 1 (purchased from SigmaAldrich; 333 μg; 0.015 micromoles) was reduced using an excess of dithiothreitol (DTT; 35 micromoles) in NH4HCO3 buffer (40 mM, pH 8.0) at 37° C. for 50 minutes (total reaction volume was 750 μL; final Prx concentration was 20 μM; and final DTT concentration was 46 mM). […] (total reaction volume was 500 μL). After 16-18 hours incubation, each reaction was removed and chromatographed using G25 Sephadex columns.
In brief, the G25 chromatographed Prx1 incubation reactions were digested with Trypsin Gold. Trypsin Gold was dissolved in 400 μL of NH4HCO3 and 100 μL of acetonitrile. A 100-150 μL volume of this Trypsin Gold stock was then added to 500 μl of the aforementioned final sample with 75 μL of acetonitrile and then the reaction volume was adjusted to a total of 750 μL with NH4HCO3. The sample was incubated for 6 hours at 37° C. Chymotrypsin digests were by dissolving chymotrypsin in 1M HCL. A 50 μL volume of this chymotrypsin stock solution was added to added to 500 μl of the aforementioned final sample along with 10% (v/v) of CaCl2 (100 mM stock). NH4HCO3 buffer was then added to bring the total reaction volume to 750 μL. Chymotrypsin digests were incubated for 16 hours at 30° C. Following digest by either trypsin or chymotrypsin, reactions were lyophilized to dryness overnight and then resuspended in a minimal amount of HPLC grade water prior to LC MS analyses.
A Symmetry C18 HPLC column (Waters, Franklin, Mass.; 3.5 μm; 4.6×75 mm) and a Waters Alliance liquid chromatography system (Waters 2695; Franklin, Mass.) coupled to a Micromass single quadropole mass detector (Micromass ZMD; Manchester, UK) were used to analyze fragments from trypsin or chymotrypsin digested human Prx1. The mobile phase contained 0.1% of formic acid throughout the run and the flow rate was 0.35 ml/min. […]

γ-Glutamyltranspeptidase = γ-Glutamyltranspeptidase (Homo sapiens, UniProt P19440); experiment: γ-Glutamyltranspeptidase activity (summary Table 27); type: biochemical
Sequence of γ-Glutamyltranspeptidase (P19440 whole entry): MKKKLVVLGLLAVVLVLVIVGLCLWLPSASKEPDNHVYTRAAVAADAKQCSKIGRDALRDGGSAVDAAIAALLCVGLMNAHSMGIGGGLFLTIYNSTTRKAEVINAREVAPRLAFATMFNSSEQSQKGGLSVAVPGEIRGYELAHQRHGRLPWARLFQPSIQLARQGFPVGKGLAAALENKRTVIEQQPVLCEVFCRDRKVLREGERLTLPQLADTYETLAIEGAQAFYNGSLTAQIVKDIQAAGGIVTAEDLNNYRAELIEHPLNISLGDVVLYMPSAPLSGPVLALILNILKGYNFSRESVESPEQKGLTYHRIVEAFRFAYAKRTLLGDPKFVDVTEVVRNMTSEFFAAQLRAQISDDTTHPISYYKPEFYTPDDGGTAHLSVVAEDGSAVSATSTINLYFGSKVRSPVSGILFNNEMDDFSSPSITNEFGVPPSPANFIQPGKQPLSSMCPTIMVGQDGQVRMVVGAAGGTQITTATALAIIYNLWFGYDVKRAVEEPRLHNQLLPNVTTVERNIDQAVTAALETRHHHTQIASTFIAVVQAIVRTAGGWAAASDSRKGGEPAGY

O=S(=O)([O-])CCSSCCS(=O)(=O)[O-].[Na+].[Na+] [Tavocept, disodium 2,2′-dithio-bis-ethane sulfonate]
Tavocept-derived mesna Adduct detected? ([1]; chymotryptic fragment VCPTEIIAF (Cys 52)): Yes | Tavocept-derived mesna Adduct detected? ([1]; chymotryptic fragment […] (Cys 173)): Yes | Tavocept-derived mesna Adduct detected? ([1]; tryptic fragment […] (Cys 173)): Yes | Cellular consequence of BNP7787-modification and/or modulation: γ-glutamyltranspeptidase (γ-Glutamyltranspeptidase): can inhibit γ-glutamyltranspeptidase and aminopeptidase N enzyme
